How the values were obtained:
[1] = biological target: CDK7/cyclinH/MAT1 complex (Homo sapiens, UniProt P50613); experiment: In-vitro enzymatic inhibitory activity testing, CDK7 inhibition assay (Caliper EZ Reader II); format: biochemical; settings: CDK7/cyclinH/MAT1 6 nM, 180 min at 27° C.
In short: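 Enzyme preincubated 10 min with compound, then peptide substrate plus ATP added in 80 mM MES pH 6.5, 10 mM MgCl2 buffer; 180 min at 27 °C, stopped with EDTA.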

[2] = system: human breast cancer cells HCC70; experiment: Cell biological activity detection (CyQuant, 72 hours), HCC70; format: cell-based; settings: Homo sapiens, HCC70, 72 h, incubation for 72 hours
In short: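 IC50 derived from CyQuant Direct nuclear staining (488 nm excitation) after 72 h compound exposure at 37 °C, 5% CO2. Compounds tested in 9 concentrations from 10 μM, 1:4 steps, 0.2% DMSO, on A2780 or HCC70 cells plated overnight at 2000/well in RPMI 1640 + 10% FBS.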

[3] = Caco-2 membrane permeability and efflux rate; format: in vitro ADME; settings: human, Caco-2, Caco-2, 5 μM; for Papp B→A at 2 h, 5 μM: basal end to top end; for efflux ratio at 2 h, 5 μM: read-out: ER (efflux rate); for Papp A→B at 2 h, 5 μM: top end to basal end
Method: The recovered Caco-2 cell suspension was seeded into a […] plate and cultured for 14-18 days. After being cultured for 14 days, the cells were fused and differentiated to be ready for a transport experiment. The Caco-2 cell plate was taken out from the incubator. Stock solutions of a to-be-tested compound and a control compound were formulated with DMSO and diluted with an HBSS (10 mM HEPES, pH 7.4) buffer to a final concentration of 5 μM. A test compound solution and a control drug solution were added to each well (top end) of an insert culture plate, and the HBSS (10 mM HEPES, pH 7.4) buffer was added to each well of a test compound receiving plate (basal end). When measuring the transport rate of the compound from the basal end to the top end, the test compound solution and the control drug solution were added to each well of the receiving plate (basal end), the HBSS (10 mM HEPES, pH 7.4) buffer solution was added to each well (top end) of the insert culture plate for the test compound solution, and incubation was carried out for 2 hours in a CO2 incubator at 37° C. After the transport experiment was completed, vortexing was carried out for 10 minutes at 1000 rpm. After sample quenching at each time point, LC/MS/MS analysis was carried out. A fluorescence value was measured after a two-hour transport experiment, a lucifer yellow solution was added in a transwell chamber (top end), a transport buffer solution was added in the basal end, and incubation was carried out for 30 minutes in the CO2 incubator at 37° C. The solution was taken out directly from the top end and the basal end (using basolateral wells) and transferred to a new 96-well plate. A cell fluorescence value was measured by a microplate reader (to detect membrane integrity), an excitation wavelength was […], and an emission wavelength was […]. All data were calculated by using Microsoft Excel, and a peak area was calculated according to chromatograms. An apparent permeability coefficient (Papp, unit: 10-6, cm/s) and an efflux rate (ER) of the compounds in Caco-2 cells were calculated by the specific concentrations of a receiving end and an administering end.

CDK9/cyclinT1 complex = CDK9/cyclinT1 complex (Homo sapiens, UniProt P50750); experiment: In-vitro enzymatic inhibitory activity testing, CDK9 inhibition assay (Caliper EZ Reader II); format: biochemical; settings: CDK9/cyclinT1 8 nM, 180 min at 27° C.
Sequence of CDK9/cyclinT1 complex (P50750 whole entry, species assumed): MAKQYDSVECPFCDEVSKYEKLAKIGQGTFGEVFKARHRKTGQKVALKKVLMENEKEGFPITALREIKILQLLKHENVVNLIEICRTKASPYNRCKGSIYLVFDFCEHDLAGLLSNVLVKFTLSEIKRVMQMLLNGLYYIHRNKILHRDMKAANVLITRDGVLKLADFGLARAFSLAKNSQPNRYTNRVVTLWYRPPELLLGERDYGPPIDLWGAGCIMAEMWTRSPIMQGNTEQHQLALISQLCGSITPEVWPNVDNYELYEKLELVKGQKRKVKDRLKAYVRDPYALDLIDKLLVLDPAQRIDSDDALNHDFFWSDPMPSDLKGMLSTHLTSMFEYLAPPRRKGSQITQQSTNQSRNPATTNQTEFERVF
Sequence of CDK9/cyclinT1 complex (O60563 whole entry partner, species assumed): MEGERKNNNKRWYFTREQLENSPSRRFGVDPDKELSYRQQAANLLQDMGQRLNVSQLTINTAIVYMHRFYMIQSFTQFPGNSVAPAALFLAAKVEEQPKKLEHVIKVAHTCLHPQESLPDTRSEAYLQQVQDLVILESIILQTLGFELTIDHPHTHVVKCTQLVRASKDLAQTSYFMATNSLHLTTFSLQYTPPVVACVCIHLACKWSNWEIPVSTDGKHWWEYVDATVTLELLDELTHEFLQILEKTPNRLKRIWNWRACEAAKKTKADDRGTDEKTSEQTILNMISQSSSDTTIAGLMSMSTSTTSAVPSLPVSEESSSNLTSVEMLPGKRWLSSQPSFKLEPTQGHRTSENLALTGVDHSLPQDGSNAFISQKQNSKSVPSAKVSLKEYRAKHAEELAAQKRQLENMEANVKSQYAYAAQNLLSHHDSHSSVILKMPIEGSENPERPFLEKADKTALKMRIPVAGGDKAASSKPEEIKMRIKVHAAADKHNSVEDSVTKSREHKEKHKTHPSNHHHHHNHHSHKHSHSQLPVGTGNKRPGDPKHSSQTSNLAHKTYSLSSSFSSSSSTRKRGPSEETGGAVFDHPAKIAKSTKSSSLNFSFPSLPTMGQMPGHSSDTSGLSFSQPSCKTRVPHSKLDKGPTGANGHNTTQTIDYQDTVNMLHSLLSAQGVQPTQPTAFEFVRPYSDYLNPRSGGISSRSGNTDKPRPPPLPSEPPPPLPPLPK
In short: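 Phosphorylated and unphosphorylated fluorescent peptide were resolved by mobility-shift electrophoresis, with IC50 taken from a nonlinear regression of dose-response data. Reactions ran 180 min at 27 °C in MES buffer pH 6.5 with MgCl2, after 10 min enzyme–compound preincubation, using 8 nM CDK9/cyclinT1 and 5-FAM-CDK9tide.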

Sequence of CDK7/cyclinH/MAT1 complex (P50613 whole entry, species assumed): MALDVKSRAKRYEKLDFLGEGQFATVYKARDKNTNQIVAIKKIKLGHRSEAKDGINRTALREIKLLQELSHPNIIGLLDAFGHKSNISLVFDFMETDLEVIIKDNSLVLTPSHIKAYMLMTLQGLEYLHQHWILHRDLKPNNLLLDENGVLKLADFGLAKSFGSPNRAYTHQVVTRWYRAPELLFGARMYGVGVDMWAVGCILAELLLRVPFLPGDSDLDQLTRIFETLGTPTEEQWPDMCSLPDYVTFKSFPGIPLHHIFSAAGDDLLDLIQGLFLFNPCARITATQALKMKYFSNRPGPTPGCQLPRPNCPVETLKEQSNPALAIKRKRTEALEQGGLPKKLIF
Sequence of CDK7/cyclinH/MAT1 complex (P51946 whole entry partner, species assumed): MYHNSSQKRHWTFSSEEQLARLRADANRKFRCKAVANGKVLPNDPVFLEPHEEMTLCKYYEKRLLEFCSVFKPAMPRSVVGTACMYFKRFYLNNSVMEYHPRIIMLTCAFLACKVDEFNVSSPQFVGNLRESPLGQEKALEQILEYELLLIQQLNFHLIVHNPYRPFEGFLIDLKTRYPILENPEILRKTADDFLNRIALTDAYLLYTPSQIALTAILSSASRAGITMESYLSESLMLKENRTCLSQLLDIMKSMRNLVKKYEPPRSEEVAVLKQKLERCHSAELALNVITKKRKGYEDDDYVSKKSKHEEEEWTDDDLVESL
Sequence of CDK7/cyclinH/MAT1 complex (P51948 whole entry partner, species assumed): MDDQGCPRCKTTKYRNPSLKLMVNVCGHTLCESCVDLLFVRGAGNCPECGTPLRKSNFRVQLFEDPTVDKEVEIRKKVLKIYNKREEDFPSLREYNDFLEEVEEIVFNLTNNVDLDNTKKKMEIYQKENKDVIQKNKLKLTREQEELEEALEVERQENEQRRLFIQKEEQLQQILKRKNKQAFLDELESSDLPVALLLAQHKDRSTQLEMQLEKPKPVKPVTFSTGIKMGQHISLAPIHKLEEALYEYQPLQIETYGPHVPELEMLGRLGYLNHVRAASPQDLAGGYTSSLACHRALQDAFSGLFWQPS

Compound | IC50 [1] [nM] | IC50 [2] [nM] | Papp B→A at 2 h, 5 μM [3] [×10⁻⁶ cm/s] | efflux ratio at 2 h, 5 μM [3] | Papp A→B at 2 h, 5 μM [3] [×10⁻⁶ cm/s] | IC50 (CDK9/cyclinT1 complex) [nM]
CC1(C)COCC(Nc2ncc(C(F)(F)F)c(-c3c[nH]c4c(P(C)(C)=O)cccc34)n2)CN1 (single isomer, unassigned) [Compound 91, (3-(2-((3,3-dimethyl-1,4-oxazepan-6-yl)amino)-5-(trifluoromethyl)pyrimidin-4-yl)-1H-indole-7-yl)dimethylphosphine oxide] | < 20 | 20 to 200 | 27.3 | 10.3 | 2.64 | > 50000
CP(C)(=O)c1cccc2c(-c3nc(NC4(CO)CC(F)C4)ncc3C(F)(F)F)c[nH]c12 (stereo not drawn) [Compound 105, (3-(2-((3-fluoro-1-(hydroxymethyl)cyclobutyl)amino)-5-(trifluoromethyl)pyrimidin-4-yl)-1H-indole-7-yl)dimethylphosphine oxide] | 20 to 200 | 20 to 200 | 21.9 | 7.32 | 2.99 | > 50000
C[C@@H](CO)Nc1ncc(C(F)(F)F)c(-c2c[nH]c3c(P(C)(C)=O)c(C#N)ccc23)n1 [Compound 79, (S)-7-(dimethylphosphoryl)-3-(2-((1-hydroxy-propan-2-yl)amino)-5-(trifluoromethyl)pyrimidin-4-yl)-1H-indole-6-carbonitrile] | < 20 | 20 to 200 | 22.3 | 4.38 | 5.1 | > 50000
CP(C)(=O)c1cccc2c(-c3nc(NC4(CO)COC4)ncc3C(F)(F)F)c[nH]c12 [Compound 114, (3-(2-((3-(hydroxymethyl)oxetan-3-yl)amino)-5-(trifluoromethyl)pyrimidin-4-yl)-1H-indole-7-yl)dimethylphosphine oxide] | < 20 | < 20 | 25.4 | 31.9 | 0.8 | > 50000
C[C@@H](CO)Nc1ncc(Cl)c(-c2c[nH]c3c(P(C)(C)=O)cccc23)n1 [Compound 103, (S)-(3-(5-chloro-2-((1-hydroxypropan-2-yl)amino)pyrimidin-4-yl)-1H-indole-7-yl)dimethylphosphine oxide] | 20 to 200 | 20 to 200 | 36.1 | 5.38 | 6.7 | > 50000
C[C@@H](CO)Nc1ncc(C#N)c(-c2c[nH]c3c(P(C)(C)=O)cccc23)n1 [Compound 179, (S)-4-(7-(dimethylphosphoryl)-1H-indole-3-yl)-2-((1-hydroxypropan-2-yl)amino)pyrimidine-5-carbonitrile] | < 20 | 20 to 200 | 33.5 | 65.9 | 0.51 | > 50000
CP(C)(=O)c1cccc2c(-c3nc(N[C@H]4CC[C@H](O)C4)ncc3C(F)(F)F)c[nH]c12 [Compound 83] | < 20 | < 20 | 32.4 | 16.3 | 1.99 | 5000 to 50000
CP(C)(=O)c1cccc2c(-c3nc(NC4(CO)CCOC4)ncc3C(F)(F)F)c[nH]c12 (single isomer, unassigned) [Compound 118] | < 20 | < 20 | 33.8 | 16 | 2.11 | > 50000
CP(C)(=O)c1cccc2c(-c3nc(NCCO)ncc3C(F)(F)F)c[nH]c12 [Compound 97, (3-(2-((2-hydroxyethyl)amino)-5-(trifluoromethyl)pyrimidin-4-yl)-1H-indole-7-yl)dimethylphosphine oxide] | < 20 | 20 to 200 | 32.3 | 20.8 | 1.55 | > 50000
CP(C)(=O)c1cccc2c(-c3nc(NC4(CO)CC(F)(F)C4)ncc3C(F)(F)F)c[nH]c12 [Compound 96, (3-(2-((3,3-difluoro-1-(hydroxymethyl)cyclobutyl)amino)-5-(trifluoromethyl)pyrimidin-4-yl)-1H-indole-7-yl)dimethylphosphine oxide] | 20 to 200 | < 20 | 26.1 | 14.1 | 1.86 | > 50000
CP(C)(=O)c1cccc2c(-c3nc(NCC(F)(F)CO)ncc3C(F)(F)F)c[nH]c12 [Compound 102, (3-(2-((2,2-difluoro-3-hydroxypropyl)amino)-5-(trifluoromethyl)pyrimidin-4-yl)-1H-indole-7-yl)dimethylphosphine oxide] | < 20 | < 20 | 26.8 | 7.8 | 3.43 | > 50000
CP(C)(=O)c1cccc2c(-c3nc(NCC4CC4CO)ncc3C(F)(F)F)c[nH]c12 (single isomer, unassigned) [Compound 143] | < 20 | 20 to 200 | 32.5 | 13.3 | 2.44 | > 50000
CC[C@@H](CO)Nc1ncc(C(F)(F)F)c(-c2c[nH]c3c(P(C)(C)=O)cccc23)n1 [Compound 88, (S)-(3-(2-((1-hydroxybutan-2-yl)amino)-5-(trifluoromethyl)pyrimidin-4-yl)-1H-indole-7-yl)dimethylphosphine oxide] | < 20 | 20 to 200 | 29.2 | 7.77 | 3.76 | > 50000
C[C@@H](CO)Nc1ncc(C(F)(F)F)c(-c2c[nH]c3c(P(C)(C)=O)cc(F)cc23)n1 [Compound 158] | < 20 | < 20 | 28.6 | 5.65 | 5.07 | > 50000
CP(C)(=O)c1cccc2c(-c3nc(N[C@H]4CCC[C@@H]4O)ncc3C(F)(F)F)c[nH]c12 [Compound 155, (3-(2-(((1S,2S)-2-hydroxycyclopentyl)amino)-5-(trifluoromethyl)pyrimidin-4-yl)-1hydro-indole-7-yl)dimethylphosphine oxide] | < 20 | < 20 | 24 | 4.31 | 5.57 | 5000 to 50000
CP(C)(=O)c1cccc2c(-c3nc(NC[C@H](F)CO)ncc3C(F)(F)F)c[nH]c12 [Compound 86, (S)-(3-(2-((2-fluoro-3-hydroxypropyl)amino)-5-(trifluoromethyl)pyrimidin-4-yl)-1H-indole-7-yl)dimethylphosphine oxide] | < 20 | 20 to 200 | 29.5 | 20.5 | 1.44 | > 50000

From patent publication US20240124504A1, “AROMATIC HETEROCYCLIC COMPOUND, AND PHARMACEUTICAL COMPOSITION AND APPLICATION THEREOF” (GT APEIRON THERAPEUTICS LIMITED, priority 2020, published 2024)
